Tested on: vitiligo depigmented area of skin
Assay: Two month study of topically applied sodium pyruvate in subjects with vitiligo (photographs, DSMII Colorimeter erythema and melanin, clinical evaluations)
Format: in vivo, human
Conditions: for average erythema colorimetric measurement: DSMII Colorimeter, 0.2% phase
Description: Subjects were 18 years of age and older. A medical history form and this consent statement were provided to them to read, review, and complete. They had no other systemic or dermatological disease present that would interfere with the integrity of this study. Subjects were in good health as determined by the medical history. After all their questions were answered and they decided to participate in the study they were asked to sign the informed consent statement. 5 subjects were studied as follows:
Subjects were dispensed two (2) tubes of test products. One was labeled HNC 180-100-A (0.05%) and the other labeled as HNC 180-100-B (0.1%). Subjects were instructed to use these products sparingly and make applications twice daily, morning, and evening. Applications were made only to the areas designated for treatment.
The sodium pyruvate dosage was increased to 0.2% after the initial eight week study was completed. Subjects were dispensed HNC-180-12 for this phase.
This was a two (2) month study that involved five (5) subjects. Test sessions lasted approximately ½ hour per visit. There were […] scheduled visits. The first was on Day 1 (Baseline), and then at 1, 2, 4, 6 and 8 weeks.
At the end of the 8 weeks all subjects were invited to continue for further study. Four of the subjects elected to continue.
Prior to any study procedures being performed subjects were given an informed consent statement to read, review, and sign. A body map assessment of the vitiligo depigmented area was made and the target areas of treatment were photographed for the baseline record. Colorimetric measurements of the skin were done employing a DSMII Colorimeter. This instrument produced a read-out of erythema and melanin based on the light absorption characteristics of human skin. Subjects reported to the clinic for additional photographs, colorimeter measurements, and clinical evaluations at each scheduled visit.

Q: Which results are given for CC(=O)C(=O)[O-].[Na+] [sodium pyruvate]?
A: increase in pigment in vitiliginous areas, subjects showing it (5 subjects with vitiligo, topical, twice daily, 0.05% and 0.1% for 8 weeks, then 0.2%): 4 out of the 5; irritation (concentration of sodium pyruvate increased to 0.2% after 8 weeks, topical): increased irritation; appearance of vitiligo (topically applied): effective in reducing the appearance of vitiligo; average erythema colorimetric measurement (week 12): 15.80 arbitrary units; average erythema colorimetric measurement (week 16): 15.71 arbitrary units

From US11351129B2, “Systems and methods for treating vitiligo” (Transdermal Biotechnology, Inc., priority 2016, dated 2022)
